Results on 18 molecules are retold here after PubChem BioAssay (NCI).

Common to all, as to test: NCI anticancer screen, dose series, 48 h
Assay [1] deals with 786-0 renal.
In assay [2] the test system is ACHN renal.
Assay [3] deals with CCRF-CEM leukemia.
The test system of assay [4] is COLO 205 colon.
The test system of assay [5] is HCT-15 colon.
Assay [6] deals with HOP-62 NSCLC.
Assay [7] concerns NCI-H522 lung.
For assay [8], the system named is SNB-75 CNS.
Assay [9] concerns U251 CNS.
The test system of assay [10] is UACC-257 melanoma.

Molecules are shown by their SMILES. Values joined by “and” are separate entries in the source; they are usually repeats but may differ in a detail not shown here. Identical values can stand only once.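 Exposure lasted 48 hours, with cells grown in 96-well plates and compounds tested at five concentrations. Abbreviation: GI50, concentration required for 50% inhibition of growth. TGI denotes the concentration required for complete inhibition of growth.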

For the molecule `CC1(C)CC[C@H](Nc2ncc(C(F)(F)F)c(-c3c[nH]c4c(P(C)(C)=O)c(C#N)ccc34)n2)CN1`, the GI50 was 0.201 µM in assay [1]; 0.0721 µM in assay [2]; 0.143 µM in [3]; < 0.01 µM in assay [4]; 0.21 µM in assay [5]; 0.0132 µM in assay [6]. The GI50 in assay [8] is 0.774 µM; in assay [9], 0.0771 µM; in assay [10] it was < 0.01 µM. In addition, the TGI in assay [1] is 19.2 µM; in assay [2], 9.27 µM; in assay [3], > 32 µM; in [4], 0.773 µM; in assay [5], 15.1 µM; in assay [6], 6.69 µM. Further, the TGI is 14.4 µM in assay [7], 10.6 µM in assay [8], 23.7 µM in assay [9] and 6.83 µM in assay [10].

For the molecule `O=C(/C=C/C12c3ccccc3C(c3ccccc31)C1C(=O)N(c3ccccc3)C(=O)C12)c1ccccc1` (configuration not stated), the GI50 in assay [1] was 2.89 µM; in assay [2], 1.63 µM; in [3], 1.45 µM; in assay [4], 2.11 µM; in assay [5], 1.6 µM; in assay [6], 3.23 µM. Also, the GI50 in assay [7] is 1.59 µM; in assay [8], 2.39 µM; in assay [9], 2.48 µM; in assay [10], 2.3 µM. For the same molecule, the TGI in assay [1] is > 100 µM; in assay [2], 4.08 µM; in assay [3], > 100 µM; in assay [4], 4.85 µM; in assay [5] it was 10.6 µM; in [6], 14.6 µM. The TGI in assay [7] is 4.45 µM; in [8], > 100 µM; in assay [9], 9.44 µM; in assay [10], 39.2 µM.

In the case of `COc1cc(/C=C2\CCC/C(=C\c3cc(OC)c(O)c(OC)c3)C2=O)cc(OC)c1O`, the GI50 was 3.9 µM in assay [1]; 1.85 µM in assay [2]; 5.93 µM in [6]; 1.24 µM in assay [7]; 2.92 µM in [10]. The TGI was 2.31 µM and 3.94 µM in [2]; 17.8 µM in assay [3]; 73.8 µM and 32.8 µM in assay [4]; 3.45 µM in assay [5]; 3.5 µM and 2.85 µM in assay [7]; > 100 µM in [8]. Also, the TGI in assay [9] was 2.76 µM and 3.14 µM; in assay [10], 75 µM and > 100 µM.

Regarding `COc1cc(/C=C\c2ccccc2)cc(OC)c1OC`, the TGI was > 52.8 µM in assay [1]; > 78.5 µM in assay [2]; 49.8 µM in assay [3]; > 20.4 µM in assay [4]; 36 µM in [5]; 23.5 µM in assay [6]. Moreover, the TGI in assay [7] came to 7.26 µM; in [8], 6.9 µM; in assay [9], 29.4 µM; in [10] it was 41.3 µM.

With `CC1CCP(=O)(c2ccccc2)c2ccccc21` (configuration not stated), the TGI in assay [1], in assay [2], in assay [3], in assay [4], in assay [5] and in assay [6] was > 100 µM throughout. Besides, the TGI in [7] was > 100 µM; in assay [8] it was > 100 µM; in [9], 53.3 µM; in [10], > 100 µM.

Regarding `CCC(=O)O[C@H]1CC[C@H]2[C@@H]3CC[C@H]4CC(=O)[C@H](C)C[C@]4(C)[C@H]3CC[C@]12C`, the GI50 in [1] is 43.3 µM; in assay [2] it was 38 µM; in [3], 18.8 µM; in assay [4] it was 28.3 µM; in assay [5], 37.7 µM; in assay [6] it was 37.7 µM. Moreover, the GI50 in assay [7] was 38.4 µM; in assay [8], > 100 µM; in assay [9], 34 µM; in assay [10], 20.8 µM. Besides, the TGI in [1], in [2], in [3], in assay [4], in assay [5] and in [6] was > 100 µM in each case. The TGI was > 100 µM in assay [7], > 100 µM in assay [8], > 100 µM in assay [9] and 92.7 µM in assay [10].

As to `COc1ccc2c(c1)/C(=C\c1cccnc1)C(=O)N2`, the GI50 in assay [1] is 18.3 µM; in assay [2] it was 18.5 µM; in [3], 10.8 µM; in [4], 26.2 µM; in assay [5], 14.4 µM; in assay [6], 23 µM. For the same molecule, the GI50 in [7] is 17.8 µM; in assay [8], 27.9 µM; in assay [9], 7.84 µM; in assay [10], 14.8 µM. Further, the TGI is 45.7 µM in [1]; 38.9 µM in assay [2]; > 100 µM in assay [3]; > 100 µM in assay [4]; 39.5 µM in [5]; 60.3 µM in assay [6]. Also, the TGI amounted to 64 µM in [7], 68.1 µM in assay [8], 47.7 µM in assay [9] and 31.8 µM in assay [10].

With `Oc1cc(O)c(Oc2cccc(O)c2O)c(O)c1`, the TGI in assay [1], in [2], in [3], in [4], in [5] and in assay [6] was > 100 µM throughout. The TGI in [7], in assay [8], in assay [9] and in assay [10] was > 100 µM in each case.

`COc1ccc(-c2oc3c(OC)c(OC)c(OC)c(O)c3c(=O)c2OC)cc1OC`: the TGI in assay [1] is > 77.9 µM; in assay [2], > 100 µM; in assay [3], > 71.3 µM; in [4] it was > 73.1 µM; in [5] it was > 100 µM; in [6], > 100 µM. Besides, the TGI in [7] was 44.6 µM; in [8], 13.2 µM; in [9], > 100 µM; in assay [10], > 100 µM.

On to `O=C(c1ccccc1)C1CCCCN1C(=O)c1ccccc1` (configuration not stated), for which the TGI in assay [1], in [2], in [3], in assay [4], in assay [5] and in assay [6] was > 100 µM in each case. Moreover, the TGI in assay [7], in assay [8], in assay [9] and in [10] was > 100 µM throughout.

In the case of `O=C(c1ccc(Cl)cc1)c1ccc(OCCCCCCCCCCOc2ccc(C(=O)c3ccc(Cl)cc3)cc2)cc1`, the TGI in [1], in assay [2], in assay [3], in assay [4], in assay [5] and in [6] was > 100 µM throughout. Also, the TGI in assay [7], in assay [8], in [9] and in assay [10] was > 100 µM each time.

As to `CCCCS(=O)CCC(N)C(=O)O` (configuration not stated), the TGI in assay [1], in assay [2], in assay [3], in assay [4], in assay [5] and in assay [6] was > 100 µM throughout. The TGI in assay [7], in [8], in assay [9] and in [10] was > 100 µM throughout.

For `OCCCOC(c1ccccc1)(c1ccccc1)c1ccccc1`, the TGI in assay [1], in [2], in assay [3], in assay [4], in [5] and in assay [6] was > 100 µM each time. The TGI is > 100 µM in [7], 62 µM in [8], > 100 µM in assay [9] and > 100 µM in assay [10].

For the molecule `C=CCN(/C=C1/C(=O)O[C@H](COC)[C@@]2(C)C1=C(O)C(=O)C1=C2[C@H](OC(C)=O)C[C@]2(C)C(=O)CC[C@@H]12)CC=C`, the GI50 is 0.379 µM in assay [1]; 1.53 µM in [2]; 0.709 µM in [3]; 2.17 µM in assay [4]; 1.19 µM in assay [5]; 2.04 µM in assay [6]. For the same molecule, the GI50 was 1.41 µM in [7], 0.0364 µM in assay [8], 2.12 µM in assay [9] and 0.72 µM in assay [10]. Besides, the TGI in [1] is > 10 µM; in assay [2], > 10 µM; in assay [3], > 6.51 µM; in [4] it was > 10 µM; in [5], > 10 µM; in assay [6], > 10 µM. Also, the TGI in assay [7] is > 10 µM; in assay [8], 0.816 µM; in assay [9] it was > 10 µM; in assay [10], > 9.25 µM.

In the case of `CCCCC1CC(c2cccc([N+](=O)[O-])c2)=NO1` (configuration not stated), the TGI in assay [1], in [2], in assay [3], in assay [4], in assay [5] and in assay [6] was > 100 µM each time. In addition, the TGI in [7], in assay [8], in assay [9] and in assay [10] was > 100 µM in each case.

In the case of `CCOC(=O)C1=C(c2ccccc2)N(C)c2ccccc2S1`, the TGI was > 100 µM in assay [1]; 58.5 µM in [2]; > 100 µM in assay [3]; > 100 µM in assay [4]; 31.3 µM in assay [5]; > 100 µM in assay [6]. Moreover, the TGI in assay [7] was 52.3 µM; in assay [8] it was > 100 µM; in assay [9] it was 49.1 µM; in [10] it was 86.1 µM.

Consider `Cc1ccc(/C(=N\N=C(N)N)c2ccccc2)cc1`, for which the GI50 in assay [1] is 0.594 µM; in assay [2], 0.777 µM; in assay [3], 0.689 µM; in assay [4], 0.282 µM; in assay [5], 0.371 µM; in [6] it was 0.672 µM. For the same molecule, the GI50 in [7] was 0.372 µM; in [8], 0.288 µM; in [9] it was 0.365 µM; in [10] it was 11.7 µM. In addition, the TGI is 12.1 µM in assay [1]; 14.8 µM in [2]; > 100 µM in assay [3]; 0.714 µM in assay [4]; 11.5 µM in assay [5]; 14.3 µM in [6]. Also, the TGI in assay [7] was 13.3 µM; in assay [8], 4.94 µM; in [9] it was 11.5 µM; in [10], 28.2 µM.

For `FC(F)(F)c1cc(-c2nnc3n2N=C(N2CCCC2)CS3)cc(C(F)(F)F)c1`, the GI50 was 20.3 µM in [1]; 10 µM in assay [2]; > 50 µM in assay [3]; > 50 µM in assay [4]; > 50 µM in [5]; 16.7 µM in [6]. Besides, the GI50 was 24 µM in assay [7], 7.12 µM in assay [8], 18.1 µM in assay [9] and > 50 µM in assay [10]. For the same molecule, the TGI in [1], in [2], in assay [3], in [4], in assay [5] and in assay [6] was > 50 µM each time. Also, the TGI in [7] is > 50 µM; in assay [8], 24.4 µM; in assay [9] it was > 50 µM; in assay [10], > 50 µM.
